The record followed here is patent publication US20200338094A1, “Use of a Heterocyclic Bcl-xL Inhibitor and Related Analogs for Removing Senescent Cells in the Treatment of Eye Diseases and Other Age-Related Conditions” (Unity Biotechnology, Inc., priority 2015, published 2020).

Each structure is given as a SMILES string.

One assay has as its target T1, Bcl-w (Homo sapiens, UniProt Q92843).
T1 construct: purchased Sigma-Aldrich Co., St. Louis, Mo
T1 sequence (Q92843 1-193): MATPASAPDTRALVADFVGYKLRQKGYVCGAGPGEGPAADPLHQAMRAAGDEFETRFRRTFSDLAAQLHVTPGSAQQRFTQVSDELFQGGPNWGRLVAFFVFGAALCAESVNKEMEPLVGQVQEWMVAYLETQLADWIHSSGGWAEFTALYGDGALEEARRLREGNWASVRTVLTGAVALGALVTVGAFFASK
As to the kind of experiment: Bcl inhibition homogeneous (AlphaScreen) binding assay, Bcl-w. The conditions noted are these: read-out: Binding Affinities (Ki ± SD) Bcl-w. From the text: (§1) This assay uses a homogenous assay technology based on oxygen channeling that is marketed by PerkinElmer Inc., Waltham, Mass.: see Eglen et al., Current Chemical Genomics, 2008, 1, 2-10. The test compound is combined with the target Bcl protein and a peptide representing the corresponding cognate ligand, labeled with biotin. The mixture is then combined with streptavidin bearing luminescent donor beads and luminescent acceptor beads, which proportionally reduces luminescence if the compound has inhibited the peptide from binding to the Bcl protein.
(§2) Bcl-2, Bcl-xL and Bcl-W are available from Sigma-Aldrich Co., St. Louis, Mo. Biotinylated BIM peptide (ligand for Bcl-2) and BAD peptide (ligand for Bcl-xL) are described in pre-grant publication US 2016/0038503 A1. AlphaScreen® Streptavidin donor beads and Anti-6×His AlphaLISA® acceptor beads are available from PerkinElmer.
(§3) To conduct the assay, a 1:4 dilution series of the compound is prepared in DMSO, and then diluted in assay buffer. In a 96-well PCR plate, the following are combined: 10 μL peptide, 10 μL test compound, and 10 μL BCL protein. The assay plate is incubated in the dark at room temperature for 24 h. The next day, donor beads and acceptor beads are combined, and […] is added to each well. After incubating in the dark for 30 minute, luminescence is measured using a plate reader, and the affinity or degree of inhibition by each test compound is determined.
(§4) The chosen compounds were further assayed to quantitatively determine the actual affinity for Bcl-xL, Bcl-2, and Bcl-w with a view to identifying candidate senolytic agents for use in treating age related conditions. FIGS. 2A, 2B, and 2C show the results of the binding assay, with those compounds towards the left of each graph having the highest affinity.
A general note: Bead proximity is the source of the signal in Alpha formats.

Assay [1] concerns senescent fibroblasts (SnCs), IMR90 cells. As to the kind of experiment: Senolytic activity: killing senescent (irradiated) IMR90 fibroblasts, CellTiter-Glo. Format: cell-based, human. The conditions noted are these: for EC50: killing senescent (irradiated) fibroblasts in culture, read-out: Best SnCs EC50; for SI (specificity for senescent cells): senescent vs non-senescent cells of the same tissue type; for senolytic potency (EC50), in words: killing senescent cells. The text has this: Human fibroblast IMR90 cells can be obtained from the American Type Culture Collection (ATCC®) with the designation CCL-186. The cells are maintained at <75% confluency in DMEM containing FBS and Pen/Strep in an atmosphere of 3% O2, 10% CO2, and 95% humidity. The cells are divided into three groups: irradiated cells (cultured for 14 days after irradiation prior to use), proliferating normal cells (cultured at low density for one day prior to use), and quiescent cells (cultured at high density for four day prior to use).
On day 0, the irradiated cells are prepared as follows. IMR90 cells are washed, placed in T175 flasks at a density of 50,000 cells per mL, and irradiated at 10-15 Gy. Following irradiation, the cells are plated at […] in 96-well plates. On days 1, 3, 6, 10, and 13, the medium in each well is aspirated and replaced with fresh medium.
On day 10, the quiescent healthy cells are prepared as follows. IMR90 cells are washed, covered with 3 mL of TrypLE trypsin-containing reagent (Thermofisher Scientific, Waltham, Mass.) and cultured for 5 min until the cells have rounded up and begin to detach from the plate. Cells are dispersed, counted, and prepared in medium at a concentration of 50,000 cells per mL. 100 µL of the cells is plated in each well of a 96-well plate. Medium is changed on day 13.
On day 13, the proliferating healthy cell population is prepared as follows. Healthy IMR90 cells are washed, covered with 3 mL of TrypLE and cultured for 5 minutes until the cells have rounded up and begin to detach from the plate. Cells are dispersed, counted, and prepared in medium at a concentration of 25,000 cells per mL. 100 µL of the cells is plated in each well of a 96-well plate.
On day 14, test senolytic agents are combined with the cells as follows. A DMSO dilution series of each test compound is prepared at 200 times the final desired concentration in a 96-well PCR plate. Immediately before use, the DMSO stocks are diluted 1:200 into prewarmed complete medium. Medium is aspirated from the cells in each well, and 100 µL/well of the compound containing medium is added.
The test senolytic agents are cultured with the cells for 6 days, replacing the culture medium with fresh medium and the same compound concentration on day 17. Bcl-2 inhibitors such as those tested in the examples that follow are cultured with the cells for 3 days. The assay system uses the properties of a thermostable luciferase to enable reaction conditions that generate a stable luminescent signal while simultaneously inhibiting endogenous ATPase released during cell lysis. At the end of the culture period, 100 µL of CellTiter-Glo@ reagent (Promega Corp., Madison, Wis.) is added to each of the wells. The cell plates are placed for 30 seconds on an orbital shaker, and luminescence is measured.
Furthermore, even if the compound is potent, it would not be suitable for use as a therapeutic unless it preferentially kills senescent cells with a high degree of selectivity. Accordingly, compounds in the library showing high Bcl binding affinity were further screened for their ability to kill irradiated fibroblasts, in comparison with replicating fibroblasts or fibroblasts that were quiescent (due to confluence) but not senescent.

A further assay concerns the target T2, Bcl-xL (Homo sapiens, UniProt Q07817).
T2 construct: purchased Sigma-Aldrich Co., St. Louis, Mo
As to the kind of experiment: Bcl inhibition homogeneous (AlphaScreen) binding assay, Bcl-xL. The conditions noted are these: read-out: Binding Affinities (Ki ± SD) Bcl-xL.
Excerpt: as §1, §2, §3, §4

In the next assay the target is T3, Bcl-2 (Homo sapiens, UniProt P10415).
T3 construct: purchased Sigma-Aldrich Co., St. Louis, Mo
T3 sequence (P10415 whole entry, species assumed): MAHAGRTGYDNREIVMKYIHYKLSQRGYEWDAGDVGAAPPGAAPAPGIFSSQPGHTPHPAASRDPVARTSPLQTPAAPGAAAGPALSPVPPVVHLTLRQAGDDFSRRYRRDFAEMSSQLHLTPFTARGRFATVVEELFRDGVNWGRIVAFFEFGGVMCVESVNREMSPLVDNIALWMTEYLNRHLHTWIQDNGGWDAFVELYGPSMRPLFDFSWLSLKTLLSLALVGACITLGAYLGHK
As to the kind of experiment: Bcl inhibition homogeneous (AlphaScreen) binding assay, Bcl-2. The conditions noted are these: read-out: Binding Affinities (Ki ± SD) Bcl-2.
Excerpt: as §1, §2, §3, §4

The next assay addresses Bcl isoforms. As to the kind of experiment: Binding affinity for the Bcl isoforms. The conditions noted are these: Bcl-xL, Bcl-2, Bcl-w.
Excerpt: as §1, §2, §3, §4

As a reminder, the Ki is the equilibrium dissociation constant of an inhibitor or competing ligand from its target. For orientation: EC50 means the concentration at which the effect is half-maximal.

T2 sequence (Q07817 whole entry, species assumed): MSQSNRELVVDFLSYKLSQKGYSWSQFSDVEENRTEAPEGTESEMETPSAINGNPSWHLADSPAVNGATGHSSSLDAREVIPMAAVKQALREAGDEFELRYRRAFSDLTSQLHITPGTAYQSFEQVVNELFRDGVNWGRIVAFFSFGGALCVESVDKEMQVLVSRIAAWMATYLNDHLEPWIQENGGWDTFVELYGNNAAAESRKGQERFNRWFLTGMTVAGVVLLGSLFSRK

In the case of `Cc1c(C(=O)O)c(-c2cccc(N3CCN(c4ccc(NS(=O)(=O)c5ccc(N[C@H](CCN6CCC(O)CC6)CSc6ccccc6)c(S(=O)(=O)C(F)(F)F)c5)cc4)CC3)c2)c(-c2ccc(Cl)cc2)n1C(C)C` [BM-962], the Ki at Bcl-w turned out to be 0.538 nM; at Bcl-xL it was 0.0574 nM; on Bcl-2, 3.39 nM. Further, in assay [1], the EC50 came out at 200 nM. For the same compound, the “SI (specificity for senescent cells)” value in assay [1] was 18.5.
With `Cc1c(S(C)(=O)=O)c(-c2cc(F)cc(N3CCN(c4ccc(NS(=O)(=O)c5ccc(N[C@H](CCN6CCC(O)CC6)CSc6ccccc6)c(S(=O)(=O)C(F)(F)F)c5)cc4)CC3)c2)c(-c2ccc(F)cc2)n1C(C)C` [BM-1195], the Ki at Bcl-w stood at 0.175 nM. In assay [1], the EC50 stood at 6 nM; the “senolytic potency (EC50), in words” value is “potent in the nanomole range”; the “SI (specificity for senescent cells)” value is 128.7. In addition, the Ki at Bcl-xL stood at 0.149 nM. For the same compound, the “binding affinities (Ki) for the Bcl isoforms, in words” value (“binding affinities (Ki)” below) at Bcl isoforms is given as “nanomole to picomole range”. Further, on Bcl-2, the Ki came to 0.667 nM.
In the case of `CCn1c(C)c(C(=O)O)c(-c2cccc(N3CCN(c4ccc(NS(=O)(=O)c5ccc(N[C@H](CCN6CCC(O)CC6)CSc6ccccc6)c(S(=O)(=O)C(F)(F)F)c5)cc4)CC3)c2)c1-c1ccc(Cl)cc1` [BM-957], the Ki on Bcl-w worked out at 0.66 nM; on Bcl-xL it was 0.0453 nM; at Bcl-2, 3.33 nM. In assay [1], the concentration giving a half-maximal response (EC50) amounted to 300 nM. The “SI (specificity for senescent cells)” value in assay [1] was 11.7.
Take `Cc1c(S(C)(=O)=O)c(-c2cc(F)cc(N3CCN(c4ccc(NS(=O)(=O)c5ccc(N[C@H](CCN6CCC(O)CC6)CSc6ccccc6)c(S(=O)(=O)C(F)(F)F)c5)cc4)CC3)c2)c(-c2ccc(Cl)cc2)n1C(C)C` [BM-1197]: the Ki at Bcl-w was determined as 0.292 nM. Moreover, in assay [1], the EC50 worked out at 5 nM; the “senolytic potency (EC50), in words” value is reported as “potent in the nanomole range”; the “SI (specificity for senescent cells)” value turned out to be 366.7. Moreover, the Ki on Bcl-xL is 0.295 nM. The “binding affinities (Ki)” value on Bcl isoforms was “nanomole to picomole range”. For the same compound, the Ki at Bcl-2 was 0.448 nM.
In the case of `Cc1c(S(C)(=O)=O)c(-c2cc(F)cc(N3CCN(c4ccc(NS(=O)(=O)c5ccc(N[C@H](CCN6CCC(C(=O)O)CC6)CSc6ccccc6)c(S(=O)(=O)C(F)(F)F)c5)cc4)CC3)c2)c(-c2ccc(Cl)cc2)n1C(C)C` [BM-1244], the Ki worked out at 0.357 nM on Bcl-w, 0.135 nM at Bcl-xL and 0.451 nM at Bcl-2. Moreover, in assay [1], the half-maximal effective concentration (EC50) was 300 nM. Besides, the “SI (specificity for senescent cells)” value in assay [1] is 66.7. Also, the “binding affinities (Ki)” value at Bcl isoforms was “nanomole to picomole range”.
Turning to `CCn1c(C)c(S(C)(=O)=O)c(-c2cc(F)cc(N3CCN(c4ccc(NS(=O)(=O)c5ccc(N[C@H](CCN6CCC(O)CC6)CSc6ccccc6)c(S(=O)(=O)C(F)(F)F)c5)cc4)CC3)c2)c1-c1ccc(F)cc1` [BM-1192], in assay [1], the EC50 was 50 nM and the “SI (specificity for senescent cells)” value was 60.0.
Turning to `CCn1c(C)c(C(=O)NS(C)(=O)=O)c(-c2cccc(N3CCN(c4ccc(NS(=O)(=O)c5ccc(N[C@H](CCN(C)C)CSc6ccccc6)c([N+](=O)[O-])c5)cc4)CC3)c2)c1-c1ccc(Cl)cc1` [BM-1075], the results for the Ki on Bcl-w, at Bcl-xL and at Bcl-2 were 0.161 nM, 0.00573 nM and 0.179 nM, respectively. The EC50 in assay [1] is 300 nM. In assay [1], the “SI (specificity for senescent cells)” value is listed as 15.3. Moreover, at Bcl isoforms, the “binding affinities (Ki)” value was “nanomole to picomole range”.
